# Experimental data published in ChEMBL document CHEMBL1201862, “PubChem BioAssay data set” (2004).
# Activity calls are given as the source filed them.
# Assays:
# [1] = cytotoxicity toward NIH3T3 fibroblasts, dose response, counter-screen, cell-based, ATP luminescence, mouse fibroblasts (AID 2010); format: functional;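 also: cells exposed to compound for about 90 hours before reading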
# [2] = Vero E6 cell cytotoxicity, dose response, cytotoxicity control for non-replicating M. tuberculosis project, secondary assay (AID 492998); format: functional, VeroE6; settings: Vero C1008
# [3] = THP-1 cell cytotoxicity, dose response, cytotoxicity control for non-replicating M. tuberculosis project (AID 489025); format: functional
# [4] = growth suppression of beta-catenin-knockout colon cells, dose response, cell-based, HCT116, human colon tumor (AID 1045); format: functional;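 also: HCT116 colon tumor cells with beta catenin knocked out; cells exposed to compound for 60 hours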
# cells = format: functional
# A-375 [5] = test: MITF: Counter assay: A375 proliferation Measured in Cell-Based System Using Plate Reader - 2084-03_Inhibitor_Dose_DryPowder_Activity. [Related pubchem assays (depositor defined):AID488944]; format: functional; settings: Homo sapiens
# [6] = growth suppression of PTEN-null colon cells, dose response, cell-based, HCT116 PTEN knockout (AID 1047); format: functional;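 also: HCT116 colon tumor cells with PTEN knocked out; cells exposed to compound for 60 hours before readout; potency for loss of cell viability measured by luminescence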
# [7] = Luminescence Cell-Based Dose Retest to Confirm Inhibitors of Cancer Stem Cells. [Related pubchem assays (depositor defined):AID2717, AID2721]; format: functional; settings: Homo sapiens
# [8] = target: T1, Microphthalmia-associated transcription factor (Homo sapiens, UniProt O75030); test: TRPM1 promoter luciferase signal decrease, dose response, MITF inhibitor project, cell-based, SK-MEL-5, cherry-picked, set 3 (AID 493073); format: functional
# T1 sequence (O75030 whole entry): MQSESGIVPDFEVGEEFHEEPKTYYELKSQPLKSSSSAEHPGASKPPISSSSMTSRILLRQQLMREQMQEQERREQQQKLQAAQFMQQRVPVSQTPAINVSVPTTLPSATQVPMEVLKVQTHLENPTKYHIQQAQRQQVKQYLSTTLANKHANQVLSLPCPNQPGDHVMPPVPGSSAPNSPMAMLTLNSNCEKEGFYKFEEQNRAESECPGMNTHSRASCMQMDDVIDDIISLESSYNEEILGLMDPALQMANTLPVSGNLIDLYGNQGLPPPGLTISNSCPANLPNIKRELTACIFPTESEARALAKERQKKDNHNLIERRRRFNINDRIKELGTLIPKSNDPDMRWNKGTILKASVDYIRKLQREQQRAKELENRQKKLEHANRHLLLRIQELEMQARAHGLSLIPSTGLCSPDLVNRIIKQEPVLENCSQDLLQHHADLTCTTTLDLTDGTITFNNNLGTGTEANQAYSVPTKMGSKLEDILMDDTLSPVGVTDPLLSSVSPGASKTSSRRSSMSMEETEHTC
# INS1 = test: beta cell apoptosis inhibitors, cytokine rescue, dose response, luminescence, retest (AID 449756); format: functional, cell-based; settings: Rattus norvegicus, INS1;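 also: cell death triggered by IL-1 beta plus TNF-alpha plus IFN-gamma mixture; protective hits raise ATP signal compared with cytokine alone wells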
# [9] = inhibitors of intracellular T. cruzi replication, confirmation, NIH3T3 host cells, beta-gal luminescence (AID 2044); format: functional, cell-based;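 also: intracellular parasites grown in NIH/3T3 mouse fibroblasts as host cells; luminescent beta-galactosidase reporter signal from transgenic T. cruzi replicating inside host cells; inhibitors lower the luminescence signal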
# [10] = HepG2 cell cytotoxicity, dose response, cytotoxicity control for non-replicating M. tuberculosis project (AID 489018); format: functional; settings: Mycobacterium tuberculosis
# Beta-galactosidase = Beta-galactosidase (Escherichia coli, UniProt Q8VNN2); test: PubChem AID 485352; format: functional
# Beta-galactosidase, sequence (Q8VNN2 whole entry): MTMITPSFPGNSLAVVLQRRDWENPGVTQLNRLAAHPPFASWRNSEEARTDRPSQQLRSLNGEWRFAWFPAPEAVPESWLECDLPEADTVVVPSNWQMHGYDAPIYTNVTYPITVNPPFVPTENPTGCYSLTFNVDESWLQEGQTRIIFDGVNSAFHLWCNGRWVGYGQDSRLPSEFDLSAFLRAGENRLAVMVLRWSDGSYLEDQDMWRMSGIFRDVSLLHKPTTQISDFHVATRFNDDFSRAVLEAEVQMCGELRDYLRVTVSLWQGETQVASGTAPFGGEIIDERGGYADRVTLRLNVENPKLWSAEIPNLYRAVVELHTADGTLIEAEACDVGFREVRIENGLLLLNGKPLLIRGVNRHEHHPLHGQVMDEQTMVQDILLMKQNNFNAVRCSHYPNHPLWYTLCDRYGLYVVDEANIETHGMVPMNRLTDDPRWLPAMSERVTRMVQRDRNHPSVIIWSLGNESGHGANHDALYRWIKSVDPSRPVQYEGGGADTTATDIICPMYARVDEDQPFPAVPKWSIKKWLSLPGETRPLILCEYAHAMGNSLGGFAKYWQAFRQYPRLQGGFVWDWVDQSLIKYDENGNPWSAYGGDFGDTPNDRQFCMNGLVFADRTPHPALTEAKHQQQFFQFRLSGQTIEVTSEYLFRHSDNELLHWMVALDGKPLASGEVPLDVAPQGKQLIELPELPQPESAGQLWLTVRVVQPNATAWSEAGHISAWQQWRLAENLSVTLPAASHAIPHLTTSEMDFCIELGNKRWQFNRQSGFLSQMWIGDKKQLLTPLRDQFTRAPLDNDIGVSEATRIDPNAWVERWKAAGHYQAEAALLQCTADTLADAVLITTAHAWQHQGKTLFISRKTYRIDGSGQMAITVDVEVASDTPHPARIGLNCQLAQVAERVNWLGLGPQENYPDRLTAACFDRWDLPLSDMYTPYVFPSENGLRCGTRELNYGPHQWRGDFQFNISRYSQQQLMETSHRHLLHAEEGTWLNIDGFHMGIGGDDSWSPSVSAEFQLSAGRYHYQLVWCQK
# [11] = target: Type-1 angiotensin II receptor (Homo sapiens, UniProt P30556); test: AT1 receptor antagonists, dose response, selectivity assay for APJ receptor antagonist project, cell-based, uHTS hits (AID 463214); format: functional;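 also: antagonist potency against angiotensin II stimulated AT1 response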
# Type-1 angiotensin II receptor, sequence (P30556 whole entry): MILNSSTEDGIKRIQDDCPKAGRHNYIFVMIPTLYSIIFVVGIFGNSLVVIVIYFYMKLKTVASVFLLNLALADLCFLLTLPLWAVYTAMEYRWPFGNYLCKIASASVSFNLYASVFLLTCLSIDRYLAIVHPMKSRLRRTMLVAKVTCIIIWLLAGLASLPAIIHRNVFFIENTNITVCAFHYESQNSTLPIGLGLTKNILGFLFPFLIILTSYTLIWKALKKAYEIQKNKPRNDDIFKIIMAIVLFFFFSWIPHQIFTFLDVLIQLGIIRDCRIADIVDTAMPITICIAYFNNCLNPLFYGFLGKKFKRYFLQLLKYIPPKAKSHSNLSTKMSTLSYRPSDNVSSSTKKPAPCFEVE
# [12] = M. tuberculosis H37Rv growth inhibitors, H37Rv strain (AID 1626); format: functional
# A-375 [13] = test: A375 melanoma cell viability reduction, dose response, counter-screen for MITF modulator project, cherry-pick samples, set 2 (AID 540335); format: functional, cell-based; settings: Homo sapiens
# [14] = target: T2, Ubiquitin-conjugating enzyme E2 N (Homo sapiens, UniProt P61088); format: functional;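 also: Dose-response confirmation in a TR-FRET assay detecting UBC13-driven polyubiquitin chain formation, inhibition measured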
# T2 sequence (P61088 whole entry): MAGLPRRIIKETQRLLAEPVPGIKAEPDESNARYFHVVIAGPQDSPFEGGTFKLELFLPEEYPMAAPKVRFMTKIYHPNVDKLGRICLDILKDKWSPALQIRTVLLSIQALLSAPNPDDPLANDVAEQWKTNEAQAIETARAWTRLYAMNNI
# [15] = target: T3, Heat shock factor protein 1 (Mus musculus, UniProt P38532); test: HSF1 potentiators in luciferase reporter cells, confirmation, cell-based, NIH3T3, luminescence, dose retest (AID 435004); format: functional;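 also: stress induced by proteasome inhibitor MG132 added 30 min after compound; luciferase reporter driven by HSF1 response element in NIH3T3 cells; actives raise luminescence as potentiators of the MG132 stress response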
# T3 sequence (P38532 whole entry): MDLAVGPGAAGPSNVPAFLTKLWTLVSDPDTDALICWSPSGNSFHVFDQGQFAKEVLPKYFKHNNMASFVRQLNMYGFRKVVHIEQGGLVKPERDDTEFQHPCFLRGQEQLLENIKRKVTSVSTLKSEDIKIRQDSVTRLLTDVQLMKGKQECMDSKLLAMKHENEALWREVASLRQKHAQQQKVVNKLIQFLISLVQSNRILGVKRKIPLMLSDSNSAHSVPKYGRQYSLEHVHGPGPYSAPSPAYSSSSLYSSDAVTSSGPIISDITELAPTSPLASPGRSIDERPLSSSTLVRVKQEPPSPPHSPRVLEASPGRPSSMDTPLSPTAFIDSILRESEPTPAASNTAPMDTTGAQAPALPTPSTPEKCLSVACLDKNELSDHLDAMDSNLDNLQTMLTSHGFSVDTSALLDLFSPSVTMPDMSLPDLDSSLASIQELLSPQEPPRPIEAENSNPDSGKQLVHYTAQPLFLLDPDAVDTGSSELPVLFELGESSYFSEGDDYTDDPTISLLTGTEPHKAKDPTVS
# [16] = HepG2 cell cytotoxicity, dose response, cytotoxicity control, ATP luminescence, cherry-pick, activator set 2 (AID 1053143); format: functional, cell-based
# Hexokinase-1 = target: T4, Hexokinase-1 (Homo sapiens, UniProt P19367); test: SAR analysis of small molecule inhibitors of hexokinase domain containing I (HKDC1) in the hexokinase 1 selectivity assay. [Related pubchem assays (depositor defined):AID493160, AID493190]; format: functional
# T4 sequence (P19367 whole entry): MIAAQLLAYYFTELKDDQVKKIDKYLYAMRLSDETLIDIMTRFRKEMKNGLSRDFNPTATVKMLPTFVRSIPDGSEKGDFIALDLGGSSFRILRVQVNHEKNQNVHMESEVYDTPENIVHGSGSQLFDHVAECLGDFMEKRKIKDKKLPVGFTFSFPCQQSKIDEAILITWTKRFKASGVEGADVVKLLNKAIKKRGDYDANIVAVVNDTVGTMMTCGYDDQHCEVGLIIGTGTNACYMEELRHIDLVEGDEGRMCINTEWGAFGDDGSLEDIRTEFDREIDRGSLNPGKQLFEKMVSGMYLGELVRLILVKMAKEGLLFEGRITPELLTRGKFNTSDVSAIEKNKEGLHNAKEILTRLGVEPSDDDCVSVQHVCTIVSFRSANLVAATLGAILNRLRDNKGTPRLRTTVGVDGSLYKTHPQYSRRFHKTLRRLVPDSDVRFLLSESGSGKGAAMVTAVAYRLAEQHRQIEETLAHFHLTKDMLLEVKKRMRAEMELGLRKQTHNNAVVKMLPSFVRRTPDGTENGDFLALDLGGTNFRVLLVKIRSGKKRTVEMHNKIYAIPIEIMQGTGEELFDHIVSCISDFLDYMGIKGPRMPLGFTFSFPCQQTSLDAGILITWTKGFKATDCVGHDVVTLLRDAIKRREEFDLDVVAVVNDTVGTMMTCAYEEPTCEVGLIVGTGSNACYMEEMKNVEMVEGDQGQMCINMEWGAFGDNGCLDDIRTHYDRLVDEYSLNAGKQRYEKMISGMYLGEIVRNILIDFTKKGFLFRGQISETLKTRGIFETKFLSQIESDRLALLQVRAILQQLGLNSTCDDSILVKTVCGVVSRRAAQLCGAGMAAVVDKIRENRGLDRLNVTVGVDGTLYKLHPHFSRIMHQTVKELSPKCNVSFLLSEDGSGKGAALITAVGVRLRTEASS
# Hexokinase HKDC1 = target: T5, Hexokinase HKDC1 (Homo sapiens, UniProt Q2TB90); test: SAR analysis of small molecule inhibitors of hexokinase domain containing I (HKDC1). [Related pubchem assays (depositor defined):AID493160, AID493190]; format: functional
# T5 sequence (Q2TB90 whole entry): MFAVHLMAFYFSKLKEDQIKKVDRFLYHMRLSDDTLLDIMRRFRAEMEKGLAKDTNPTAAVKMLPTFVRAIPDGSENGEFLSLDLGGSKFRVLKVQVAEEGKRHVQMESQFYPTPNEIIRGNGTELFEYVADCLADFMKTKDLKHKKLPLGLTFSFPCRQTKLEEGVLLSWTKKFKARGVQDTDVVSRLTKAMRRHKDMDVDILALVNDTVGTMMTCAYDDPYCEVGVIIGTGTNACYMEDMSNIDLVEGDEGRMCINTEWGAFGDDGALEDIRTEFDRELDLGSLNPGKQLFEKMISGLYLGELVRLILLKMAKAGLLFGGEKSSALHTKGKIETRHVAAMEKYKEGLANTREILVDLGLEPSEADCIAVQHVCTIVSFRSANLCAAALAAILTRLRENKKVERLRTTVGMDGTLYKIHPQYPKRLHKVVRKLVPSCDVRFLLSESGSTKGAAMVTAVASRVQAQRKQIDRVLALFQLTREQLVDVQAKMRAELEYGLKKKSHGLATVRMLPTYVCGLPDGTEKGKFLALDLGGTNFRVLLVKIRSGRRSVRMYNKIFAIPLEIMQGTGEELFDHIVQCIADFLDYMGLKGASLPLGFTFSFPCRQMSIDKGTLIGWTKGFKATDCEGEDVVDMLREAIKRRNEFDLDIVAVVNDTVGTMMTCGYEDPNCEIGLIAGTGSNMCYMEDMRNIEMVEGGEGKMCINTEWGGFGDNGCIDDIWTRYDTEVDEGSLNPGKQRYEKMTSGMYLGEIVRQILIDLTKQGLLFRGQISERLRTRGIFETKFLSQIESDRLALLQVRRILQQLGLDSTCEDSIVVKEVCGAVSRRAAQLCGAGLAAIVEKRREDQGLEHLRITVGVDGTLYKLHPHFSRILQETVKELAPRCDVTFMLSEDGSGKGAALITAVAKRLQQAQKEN
smiles,measurement,setting,value
COc1cc(CNC2CCCC2)cc(Cl)c1OCc1ccccc1Cl,EC50,[1],13.8 µM (active)
same,CC50,[2],> 20 µM (active)
same,CC50,[3],18.3 µM (active)
same,EC50,[4],12.1 µM (active)
same,IC50,cells,16.8 µM (active)
same,AC50,A-375 [5],17.5 µM (active)
same,EC50,[6],14.6 µM (active)
same,AC50,[7],5.89 µM (active)
same,AC50,[8],17.7 µM (active)
same,AC50,INS1,7.36 µM (active)
same,EC50,[9],1.17 µM (active)
same,CC50,[10],19.1 µM (active)
Cc1ccc(C(=O)CNc2ccc(C)c(Cl)c2)cc1,EC50,Beta-galactosidase,> 40 µM (inactive)
same,IC50,[11],5.43 µM (active)
same,IC50,[12],> 100 µM (active)
COc1ccc(C[C@H]2CN3C(=NC[C@@H]3C(C)C)N2CCNC(=O)c2ccc(C)c(Br)c2)cc1,AC50,A-375 [13],34.3 µM (active)
same,IC50,[14],> 20 µM (inactive)
C#Cc1cccc(NC(=O)CSc2nnc(-c3ccc(C(F)(F)F)cn3)o2)c1,AC50,A-375 [5],> 11 µM (active)
same,AC50,A-375 [13],> 11 µM (active)
CCOc1cccc(/C=C/c2ccc3cccc(O)c3n2)c1OC,EC50,[1],4.48 µM (active)
same,EC50,[15],27.7 µM (active)
same,EC50,Beta-galactosidase,> 40 µM (inactive)
same,IC50,[11],16.6 µM (active)
same,EC50,[9],2.48 µM (active)
same,AC50,[16],26 µM (active)
Cc1ccc(C(=O)Nc2nnc(SCc3ccc(C#N)cc3)s2)cc1,IC50,Hexokinase-1,> 80 µM (inactive)
same,IC50,Hexokinase HKDC1,> 80 µM (inactive)
O=c1c2ccccc2nc(/C=C/c2ccc(Br)cc2)n1Cc1ccccc1,IC50,Hexokinase-1,> 80 µM (inactive)
same,IC50,Hexokinase HKDC1,> 80 µM (inactive)
